Measured values from US3981983A, “Rapid, radiochemical-ligand binding assay for methotrexate” (priority 1975, dated 1976).
One block for each compound: values may come before it.

What was measured:
[1] = Endogenous MTX level in serum and CSF of patients who had received MTX; format: in vivo; settings: 6 hours to 6 days after oral, parenteral or intrathecal MTX
Description: (§1) The samples in Table II were assayed by sequential binding procedures in accordance with the present invention, and they were assayed at multiple dilutions as previously described.

[2] = molecular target: T1, folic acid reductase (binder factor) (Cavia porcellus, UniProt H0VYF1); experiment: Cofactor dependency of ^3H-MTX binding; set-up: species or system guinea pig; settings: for binding of ^3H-MTX with cofactor substituted for NADPH2: 1,000 times the optimal concentration of NADPH2; for inhibition of the MTX binding reaction: NADPH2 in slight excess, until concentration reached several thousand fold excess to NADPH2
T1 construct: NADPH as cofactor
T1 sequence (H0VYF1 1-187): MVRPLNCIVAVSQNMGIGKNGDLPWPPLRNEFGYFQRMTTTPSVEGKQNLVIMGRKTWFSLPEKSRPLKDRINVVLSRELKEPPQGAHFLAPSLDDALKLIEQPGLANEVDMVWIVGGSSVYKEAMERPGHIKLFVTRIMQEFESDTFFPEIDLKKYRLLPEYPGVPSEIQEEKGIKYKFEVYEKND
Description: (§2) The binder factor or folic acid reductase was prepared from guinea pig liver according to the method of Bertino et al, "Dihydrofolate Reductase From Guinea Pig Liver And Small Intestine,"Biochemical Pharmacology 15, pages 563 - 571, 1966 modified as noted below. The livers from freshly killed guinea pigs were rinsed in cold isotonic saline, suspended in 3 volumes (weight/volume) of the same, and homogenized in an Omnimixer (Sorvall, Inc.) for two minutes at 90 volts. The pH of the homogenate was adjusted to 5.1 with 1.0 N HCl. The homogenate was centrifuged at 12,000 × G for 15 minutes, and the pellet was discarded.
(§3) Ammonium sulfate was added to the supernatant to 55% of saturation at 4°C and, when necessary, the pH was adjusted to 6.0 with 1.0 N KOH. After standing for 30 minutes at 4°C, the precipitate was collected by centrifugation for 15 minutes at 12,000 × G and discarded. The supernatant was brought to a final ammonium sulfate concentration of 70% of saturation, again keeping the pH at 6.0, and stored overnight at 4°C. The resultant precipitate was recovered by centrifugation, as above, and dissolved in a minimal volume of 0.01 M potassium phosphate buffer, pH 7.0, which was 0.01 M with respect to KCl. The burgundy colored solution was applied to a Sephadex G-50 column (5 × 100 cm) equilibrated in 0.01 M potassium phosphate, pH 7.0, and 0.2 M KCl; the same buffer was used for elution of the sample.
The eluted material from the column was collected in 5 ml samples, and the binder factor or folic acid reductase eluted from the column behind the excluded volume which was marked by the hemoglobin peak. Sephadex permitted a rapid removal of ammonium sulfate and also gave a partial purification of the binder. Yields of 60% to 80% of the activity present in the crude homogenate were obtained with this methodology.
The maximum binding was identical to the binding observed in the presence of 0.1 μmole NADPH2.

[3] = format: physicochemical; settings: 4°C, buffer A pH 6.0 with albumin
Description: The assay reaction is carried out in an aqueous solution of 0.01 M potassium phosphate, 0.15 M potassium chloride, pH 6.0, hereinafter referred to as buffer A. In the assay procedure, buffer A has added thereto about 1 mg of albumin per ml and other additons as noted.
As previously indicated, a binder cofactor comprising reduced nicotinamide adenine dinucleotide phosphate or NADPH2 was added to the reaction solution in the amounts noted below at the time of the assay.

[4] = molecular target: T1, folic acid reductase (binder factor); experiment: Reliability, recovery and sensitivity of the radiochemical ligand binding assay for MTX in serum and cerebrospinal fluid; set-up: species or system guinea pig; settings: presence of ascorbic acid
Description: as §1

[5] = molecular target: T1, folic acid reductase (binder factor); experiment: Direct binding of labeled folates to the binder preparation; set-up: species or system guinea pig; settings: at the concentration of reactants used in the standard curves
Description: as §2
as §3, with “The burgundy colored solution was applied to a Sephadex G-50 column (5 × 100 cm) equilibrated in 0.01 M potassium phosphate, pH 7.0, and 0.2 M KCl; the same buffer was used for elution of the sample.” left out

[6] = molecular target: T1, folic acid reductase (binder factor); experiment: Specificity of the binder: competition with ^3H-MTX in direct competitive and sequential binding assays; set-up: species or system guinea pig; settings: other folate derivatives up to 200 fold excess relative to ^3H-MTX
Description: as §2, with “discarded. […]” for “discarded.”
At the end of the first incubation period, ^3 H-MTX was added and the incubation was continued for an additional 10 minutes. […] After centrifugation for 10 minutes at 2,000 - 3,000 × G to pellet the charcoal, the radioactivity in the clear supernatant was determined by liquid scintillation counting. […]
The specificity of the binder was determined by incubating the following compounds in direct competitive and sequential binding assays with ^3 H-MTX: pteroylmonoglutamate (Folic Acid, Nutritional Biochemicals); 5-methyltetrahydrofolic acid (Sigma Chemical Co.); 5-formyltetrahydrofolicacid (Leucovorin, Lederle Co.); adenosine, guanylic acid, para-aminobenzoylglutamate and 6-carboxypterin (Sigma Chemical Co.); pteroylheptaglutamate and aminopterin.

SMILES: NC(=O)c1ccc[n+]([C@@H]2O[C@H](COP(=O)([O-])OP(=O)(O)OC[C@H]3O[C@@H](n4cnc5c(N)ncnc54)[C@H](OP(=O)(O)O)[C@@H]3O)[C@@H](O)[C@H]2O)c1 [NADP, Nicotinamide adenine dinucleotide phosphate]
binding of ^3H-MTX with cofactor substituted for NADPH2 [2]: did not allow binding of ^3 H-MTX
inhibition of the MTX binding reaction [2]: did not inhibit the binding reaction

SMILES: NC(=O)C1=CN([C@@H]2O[C@H](COP(=O)(O)OP(=O)(O)OC[C@H]3O[C@@H](n4cnc5c(N)ncnc54)[C@H](O)[C@@H]3O)[C@@H](O)[C@H]2O)C=CC1 [NADH]
maximum binding of MTX obtained with cofactor substituted for NADPH2 ([2]; concentrations up to 200,000 times the optimal amount of NADPH2): 40%

SMILES: NC(=O)c1ccc[n+]([C@@H]2O[C@H](COP(=O)([O-])OP(=O)(O)OC[C@H]3O[C@@H](n4cnc5c(N)ncnc54)[C@H](O)[C@@H]3O)[C@@H](O)[C@H]2O)c1 [NAD, nicotinamide adenine dinucleotide]
binding of ^3H-MTX with cofactor substituted for NADPH2 [2]: did not allow binding of ^3 H-MTX
inhibition of the MTX binding reaction [2]: did not inhibit the binding reaction

SMILES: Nc1nc2ncc(CNc3ccc(C(=O)N[C@@H](CCC(=O)O)C(=O)O)cc3)nc2c(=O)[nH]1 [^3 H-folic acid]
binding of labeled folate by the binder preparation [5]: did not bind

SMILES: Nc1nc(N)c2nc(CNc3ccc(C(=O)N[C@@H](CCC(=O)O)C(=O)O)cc3)cnc2n1 [aminopterin, N-{p-[(2,4-diamino-6-pteridylmethyl)amino]benzoyl}-glutamic acid]
competition for ^3H-MTX binding sites [6]: competed for ^3 H-MTX binding sites

The remaining lines, values ahead:

Endogenous MTX, CSF [1]: 8 Nanograms per ml
SMILES: CN(Cc1cnc2nc(N)nc(N)c2n1)c1ccc(C(=O)N[C@@H](CCC(=O)O)C(=O)O)cc1 [MTX, N-[p-(2,4-diamino-6-pteridylmethyl)methylaminobenzoyl]-glutamic acid]

stability in buffer A with albumin [3]: stable for several days
SMILES: NC(=O)C1=CN([C@@H]2O[C@H](COP(=O)(O)OP(=O)(O)OC[C@H]3O[C@@H](n4cnc5c(N)ncnc54)[C@H](OP(=O)(O)O)[C@@H]3O)[C@@H](O)[C@H]2O)C=CC1 [NADPH2, reduced nicotinamide adenine dinucleotide phosphate]

effect on the assay [4]: did not affect the assay
SMILES: O=C1O[C@H]([C@@H](O)CO)C(O)=C1O [ascorbic acid]

binding of labeled folate by the binder preparation [5]: did not bind
SMILES: [14CH3]N1c2c([nH]c(N)nc2=O)NCC1CNc1ccc(C(=O)N[C@@H](CCC(=O)O)C(=O)O)cc1 (some centres unmarked) [^14 C-5-methyltetrahydrofolic acid]
